Experimental data taken from PMC9882606, “Rationally designed inhibitors of the Musashi protein-RNA interaction by hotspot mimicry” (Research Square, 2023).

Experiments:
MSI2 = MSI2 (Homo sapiens, UniProt Q96DH6); test: Cellular thermal shift assay (CETSA) in PC9 cells; type: cell-based; design: endogenous in cells; host or cells: PC9; settings: PC9, 3 hours, 20 μM or 40 μM, heated to 49 °C
Excerpt: To explore the effect of these MSI2 inhibitors in a cancer-relevant cellular context, we selected two MSI2-dependent cancer cell lines: non-small cell lung cancer cell line PC9 and leukemia cell line K562 [73, 98–101]. Upon treatment of PC9 cells with Ro, R12–8–44–3, or negative control R12-neg, we found at multiple time points that cellular MSI2 protein levels were unchanged (Figure 6a). To confirm target engagement, we therefore adapted the cellular thermal shift assay (CETSA). […]
Figure 6: Direct cellular engagement of MSI2 interaction by R12–44–3. […] MSI2 protein abundance was then quantified and normalized to untreated sample. One representative image is shown; quantification is presented as the average ± S.E.M. from 3 independent replicates. […] Cells were briefly incubated at temperatures between 40 °C to 67 °C, then centrifuged and the amount of MSI2 remaining in the soluble fraction was quantified by Western blotting. […] One representative image is shown; quantification is presented as the average ± S.E.M. from 3 independent replicates, normalized first to beta-actin and then to DMSO control. […] One representative image is shown; quantification is presented as the average ± S.E.M. from 3 independent replicates, normalized first to beta-actin and then to DMSO control. […]

PC9 cells [1] = test: Clonogenic assay, combination with osimertinib, PC9; type: cell-based, human; settings: PC9, 7 days, 2 nM osimertinib with 10 μM compound
Method: (§1) Figure 7: Cellular characterization of MSI2 inhibition by R12–8–44–3. (A) Quantification of mRNA immunoprecipitation (RIP) results. Cells were treated with 10 μM of the indicated compounds for 8 hours. After immunoprecipitation with anti-MSI2, mRNA targets were quantified. The amount of each target mRNA in the pulldown was calculated relative to the input, and results from all targets were normalized to PTP4A1. Treating cells with R12–8–44–3 disrupted the interaction with all four cognate mRNAs (PTP4A, SMAD3, EGFR, and MSI2). Data are presented as the average ± S.E.M. from at least 3 independent replicates. […] Cells were treated with indicated compounds at two concentrations (5 μM and 20 μM) for 48 hours, then protein levels of relevant MSI2 targets were determined (EGFR, SMAD3, and MSI2). One representative image is shown; quantification is presented as the average ± S.E.M. from at least 3 independent replicates, normalized first to beta-actin and then to DMSO-treated cells. (C) Cell viability dose-response quantified by CellTiter-Blue after 3 days (left) and cell proliferation with 10μM of compounds quantified by clonogenic assay after 7 days (right). […] (D) Cell viability quantified by clonogenic assay of PC9 cell line after 7-day treatment with 2 nM osimertinib (osi alone), osimertinib with 10 μM R12–8–44–3, or osimertinib with 10 μM R12-neg. […]

PC9 cells [2] = test: Clonogenic assay, PC9; type: cell-based, human; settings: PC9, 10 μM, 7 days
Method: as §1

[3] = tested on: EGFR, SMAD3, and MSI2 protein levels; test: Immunoblot of MSI2 downstream targets in PC9 cells; type: cell-based, human; settings: PC9, 5 μM or 20 μM, 48 hours
Method: as §1

K562 cells = test: Cell growth/survival, K562; type: cell-based, human
Excerpt: It is difficult to determine precisely why Ro and R12–8–44–3 have such dramatically different behavior in this assay: one possibility is that Ro, a repurposed compound originally reported for activity unrelated to MSI2, may exert its cytotoxic effect in these cell lines through molecular targets unrelated to MSI2.

MSI2, sequence (Q96DH6 whole entry): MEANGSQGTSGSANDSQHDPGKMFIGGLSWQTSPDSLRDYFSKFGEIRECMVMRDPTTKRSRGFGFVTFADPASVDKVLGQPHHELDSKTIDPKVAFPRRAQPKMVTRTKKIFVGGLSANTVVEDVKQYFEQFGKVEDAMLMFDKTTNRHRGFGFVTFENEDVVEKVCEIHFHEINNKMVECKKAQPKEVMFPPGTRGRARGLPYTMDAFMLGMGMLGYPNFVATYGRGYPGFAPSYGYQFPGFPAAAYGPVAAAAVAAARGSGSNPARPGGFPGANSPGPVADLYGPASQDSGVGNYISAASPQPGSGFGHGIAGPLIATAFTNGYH

Structure (SMILES): Cc1cc(C(=O)OCc2nc(N)c3c(C)c(C)sc3n2)c(N)cc1F [R12–8–44–3]
- soluble MSI2 after heating (CETSA) (MSI2): confers protection against thermal-induced aggregation
- clonogenic assay in combination with osimertinib (PC9 cells [1]): robust combined effect with osimertinib
- cell proliferation (clonogenic assay) (PC9 cells [2]): no effect on cell growth/survival
- SMAD3 and EGFR protein levels [3]: phenocopied the effect of MSI2 depletion on these two targets
- amount of MSI2 protein [3]: without changing the amount of MSI2
- cell growth/survival (K562 cells): results in alignment with our observations from PC9 cells
